Laboratory results: patent publication US9586916B2, “Integrin antagonist conjugates for targeted delivery to cells expressing alpha-V-beta-3” (Hoffmann-La Roche Inc., priority 2012, dated 2017)

Biological target: T1, αVβ3 (Homo sapiens, UniProt P05106+P06756)
T1 construct: purchased R & D 3050-AV
Experiment: Human αVβ3 solid phase assay (fibrinogen binding to coated αVβ3)
Settings: αVβ3 coated plates, fibrinogen as ligand
Experimental: The following assay was conducted to assess αVβ3 binding affinity of the αVβ3-targeted compounds of this invention.
Human αVβ3 solid phase assay:
Immuno 96-well Plates (NUNC, Part#439454) were coated with αVβ3 (R & D, Cat#3050-AV) by adding 100 uL of αVβ3 (lx) to each well and incubating the plates overnight at […]. Buffer used was Buffer A: 20 mM Tris, 150 mM NaCl, 1 mM CaCl2, 1 mM MgCl2, pH7.4. After removal of the coating reagent, 150 uL of 3.5% BSA in Buffer A was added to each well to block the plates for 105 minutes at […]. After blocking, plates were washed 5 times with 200 uL of Buffer B (Buffer A+1 mM MnC12). 50 uL of test compound solution (2×) in 5% DMSO and 50 uL of fibrinogen (2×) (Innovative Research, Cat# IFIB) were then added to each well. Plates were shaken for 2 minutes, and then incubated for 2 hours for 370 C. After the plates were washed 5 times with 200 uL of Buffer B, the 1st antibody rabbit anti-human fibrinogen (Innovative Research, Cat IASHFBGN-GF) in the amount of 100 uL/well, and the 2nd antibody Goat anti-rabbit IgG Horse-radish peroxidase conjugate (Invitrogen, Cat#G21234) in the amount of 50 uL/well were added to plates, respectively. […] After being added 100 uL/well Stop Buffer (1.0 M Phosphoric Acid […]), plates were read on Envision at Absorbance mode 450 nm.

T1 sequence (P06756 31-992 limits assumed): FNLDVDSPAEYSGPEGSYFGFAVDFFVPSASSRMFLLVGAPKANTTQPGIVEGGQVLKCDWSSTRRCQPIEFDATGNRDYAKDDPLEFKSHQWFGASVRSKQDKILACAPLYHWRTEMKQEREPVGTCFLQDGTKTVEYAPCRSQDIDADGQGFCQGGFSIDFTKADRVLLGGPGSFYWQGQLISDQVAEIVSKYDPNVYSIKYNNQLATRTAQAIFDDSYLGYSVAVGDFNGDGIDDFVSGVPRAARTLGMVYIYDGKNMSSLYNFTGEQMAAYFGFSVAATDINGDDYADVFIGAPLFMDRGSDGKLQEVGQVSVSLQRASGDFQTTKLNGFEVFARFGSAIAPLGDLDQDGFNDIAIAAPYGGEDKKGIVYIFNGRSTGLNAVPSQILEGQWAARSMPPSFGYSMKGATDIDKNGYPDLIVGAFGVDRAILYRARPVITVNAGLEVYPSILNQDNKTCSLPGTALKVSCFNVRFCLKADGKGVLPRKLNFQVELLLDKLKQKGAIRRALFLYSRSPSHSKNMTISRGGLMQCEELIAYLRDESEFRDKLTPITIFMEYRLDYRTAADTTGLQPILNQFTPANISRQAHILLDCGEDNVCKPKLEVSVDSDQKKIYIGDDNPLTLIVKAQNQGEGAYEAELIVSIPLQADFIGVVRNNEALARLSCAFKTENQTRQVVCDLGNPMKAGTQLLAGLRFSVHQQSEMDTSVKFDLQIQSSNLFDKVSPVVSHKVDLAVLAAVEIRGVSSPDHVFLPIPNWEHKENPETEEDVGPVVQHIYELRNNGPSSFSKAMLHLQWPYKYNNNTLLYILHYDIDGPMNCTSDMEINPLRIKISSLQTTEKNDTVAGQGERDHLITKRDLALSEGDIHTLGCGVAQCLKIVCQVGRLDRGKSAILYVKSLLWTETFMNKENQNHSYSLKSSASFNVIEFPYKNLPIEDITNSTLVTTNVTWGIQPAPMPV
T1 sequence (P05106 27-718 limits assumed): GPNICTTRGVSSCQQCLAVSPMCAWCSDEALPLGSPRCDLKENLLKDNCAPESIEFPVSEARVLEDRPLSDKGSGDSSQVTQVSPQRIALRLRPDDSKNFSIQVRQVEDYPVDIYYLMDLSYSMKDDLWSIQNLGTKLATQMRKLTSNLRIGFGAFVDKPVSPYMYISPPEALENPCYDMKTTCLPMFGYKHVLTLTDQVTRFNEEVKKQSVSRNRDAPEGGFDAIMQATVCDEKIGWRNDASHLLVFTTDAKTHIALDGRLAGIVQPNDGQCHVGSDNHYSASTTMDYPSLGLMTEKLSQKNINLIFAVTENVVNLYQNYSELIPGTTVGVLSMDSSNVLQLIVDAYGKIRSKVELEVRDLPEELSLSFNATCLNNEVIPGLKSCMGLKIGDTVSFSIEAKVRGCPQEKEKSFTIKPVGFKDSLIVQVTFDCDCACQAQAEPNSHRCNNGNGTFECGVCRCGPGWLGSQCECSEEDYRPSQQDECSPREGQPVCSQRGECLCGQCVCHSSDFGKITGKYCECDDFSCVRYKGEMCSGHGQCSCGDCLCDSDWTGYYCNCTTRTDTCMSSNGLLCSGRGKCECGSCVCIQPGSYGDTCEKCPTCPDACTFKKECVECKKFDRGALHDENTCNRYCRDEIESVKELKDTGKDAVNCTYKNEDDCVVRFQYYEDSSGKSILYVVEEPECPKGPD

IC50: ~2 nM
Structure (SMILES): COc1ccc(NC(=O)[C@H](CC(=O)O)NC(=O)CNC(=O)c2cccc(N=C(N)N)c2)cc1 [compound 141]
